Test results from ChEMBL document CHEMBL3046874, “Synthesis and biological evaluation of chalcones and acetyl pyrazoline derivatives comprising furan nucleus as an antitubercular agents” (2012).

Key:
Assay type in all cases: functional
[1] = test system: Proteus vulgaris; assay: Antibacterial activity against Proteus vulgaris ATCC 29905 after 24 hr by agar well diffusion method
[2] = test system: Aspergillus niger; assay: Antifungal activity against Aspergillus niger ATCC 9029 after 7 days by agar plate method
[3] = test system: Priestia megaterium; assay: Antibacterial activity against Bacillus megaterium ATCC 14518 after 24 hr by agar well diffusion method
[4] = test system: Staphylococcus aureus; assay: Antibacterial activity against Staphylococcus aureus ATCC 25923 after 24 hr by agar well diffusion method
[5] = test system: Escherichia coli; assay: Antibacterial activity against Escherichia coli ATCC 25922 after 24 hr by agar well diffusion method
[6] = test system: Mycobacterium tuberculosis; assay: Growth inhibition of Mycobacterium tuberculosis H37Rv at 6.25 ug/ml by radiometric anlaysis; settings: read-out: GI

| SMILES | inhibition zone (IZ) [1] [mm] | diameter of the inhibition zone (DIZ) [2] [mm] | inhibition zone (IZ) [3] [mm] | inhibition zone (IZ) [4] [mm] | inhibition zone (IZ) [5] [mm] | inhibition of growth at 6.25 µg/mL [6] [%] |
| --- | --- | --- | --- | --- | --- | --- |
| CC(=O)N1N=C(c2cccc([N+](=O)[O-])c2)CC1c1ccc(-c2ccc(Cl)c(Cl)c2)o1 (stereo unspecified) | 13 | 17 | 13 | 14 | 17 | 6 |
| CC(=O)N1N=C(c2ccc([N+](=O)[O-])cc2)CC1c1ccc(-c2ccc(Cl)c(Cl)c2)o1 (stereo unspecified) | 14 | 13 | 16 | 12 | 14 | 19 |
| Cc1ccc(C(=O)/C=C/c2ccc(-c3ccc(Cl)c(Cl)c3)o2)cc1 | 14 | 13 | 22 | 13 | 19 |  |
| O=C(/C=C/c1ccc(-c2ccc(Cl)c(Cl)c2)o1)c1cccc([N+](=O)[O-])c1 | 17 | 17 | 19 | 16 | 11 |  |
| O=C(/C=C/c1ccc(-c2ccc(Cl)c(Cl)c2)o1)c1ccc([N+](=O)[O-])cc1 | 15 | 19 | 11 | 17 | 12 |  |
| CC(=O)N1N=C(c2ccccc2)CC1c1ccc(-c2ccc(Cl)c(Cl)c2)o1 (stereo unspecified) | 17 | 13 | 17 | 20 | 18 | 0 |
| CC(=O)N1N=C(c2cccc(N)c2)CC1c1ccc(-c2ccc(Cl)c(Cl)c2)o1 (stereo unspecified) | 15 | 17 | 14 | 13 | 15 | 4 |
| CC(=O)N1N=C(c2ccc(N)cc2)CC1c1ccc(-c2ccc(Cl)c(Cl)c2)o1 (stereo unspecified) | 12 | 19 | 17 | 17 | 17 | 74 |
| CC(=O)N1N=C(c2ccc(Br)cc2)CC1c1ccc(-c2ccc(Cl)c(Cl)c2)o1 (stereo unspecified) | 19 | 18 | 20 | 12 | 11 | 6 |
| CC(=O)N1N=C(c2ccc(Cl)cc2)CC1c1ccc(-c2ccc(Cl)c(Cl)c2)o1 (stereo unspecified) | 18 | 21 | 21 | 16 | 19 | 17 |
| CC(=O)N1N=C(c2ccc(F)cc2)CC1c1ccc(-c2ccc(Cl)c(Cl)c2)o1 (stereo unspecified) | 13 | 17 | 13 | 13 | 12 | 1 |
| CC(=O)N1N=C(c2ccccc2O)CC1c1ccc(-c2ccc(Cl)c(Cl)c2)o1 (stereo unspecified) | 11 | 15 | 18 | 16 | 13 | 11 |
| COc1ccc(C2=NN(C(C)=O)C(c3ccc(-c4ccc(Cl)c(Cl)c4)o3)C2)cc1 (stereo unspecified) | 14 | 19 | 12 | 19 | 20 | 0 |
| CC(=O)N1N=C(c2ccc(C)cc2)CC1c1ccc(-c2ccc(Cl)c(Cl)c2)o1 (stereo unspecified) | 19 | 20 | 19 | 21 | 12 | 0 |
